Experimental data as given in patent US11084805B2, “Compound derived from allulose” (CJ CHEILJEDANG CORPORATION, priority 2019, dated 2021).

Experiment: Evaluation of acid resistance of allulose disaccharide (residual percentage by HPLC after storage in citrate buffer)
Format: physicochemical
Details: for Residual percentage: 1% (w/v) in 10 mM citrate buffer
Protocol: 1% D1 solution was prepared (in 10 mM citrate buffer) to measure acid resistance thereof. Sucrose that is a disaccharide having a similar structure and D2 that is another allulose disaccharide were used as controls.
The pH of the solution was adjusted to pH 2.0, 4.0, and 6.0 using 10 mM citrate and sodium citrate buffers. The prepared solutions were respectively stored at room temperature ([…]), and purities of remaining substances were identified by HPLC analysis (HPX-87C column, 80° C., 60 min, 20 μl) at 0 hour, 24 hours, 72 hours, and 120 hours. The concentration of each substance was 1% (w/v) and reaction temperature was 40° C.
Those results which show statistically significant difference under the same experimental conditions were indicated by different alphabets.
The measured results with respect to storage time were analyzed using analysis of variance (ANOVA) as statistical analysis and tukey's multiple range test as post hoc analysis, and statistical significance was set to p<0.05.

| Residual percentage (pH 2, 40° C., 0 hr) [%] | Residual percentage (pH 2, 40° C., 24 hr) | Residual percentage (pH 2, 40° C., 72 hr) | Residual percentage (pH 2, 40° C., 120 hr) | Residual percentage of D1 relative to that of sucrose (higher than) (pH 2, after 120 hours) | Residual percentage (pH 4, 40° C., 0 hr) [%] | Residual percentage (pH 4, 40° C., 24 hr) | Residual percentage (pH 4, 40° C., 72 hr) | Residual percentage (pH 4, 40° C., 120 hr) | Residual percentage (pH 6, 40° C., 0 hr) [%] | Residual percentage (pH 6, 40° C., 24 hr) [%] | Residual percentage (pH 6, 40° C., 72 hr) [%] | Residual percentage (pH 6, 40° C., 120 hr) | SMILES | Acid resistance compared with D2 and sucrose (at pH 6 or less) |
| --- | --- | --- | --- | --- | --- | --- | --- | --- | --- | --- | --- | --- | --- | --- |
| 100.0 | 85.9^A % | 58.2^A % | 44.6^A % | about 130% | 100.0 | 99.0^A % | 98.8^A % | 97.9^A % | 100.0 | 100.0 | 100.0 | 99.96^A* % | OCC1(O)O[C@H](CO[C@]2(CO)OC[C@@H](O)[C@@H](O)[C@H]2O)[C@@H](O)[C@H]1O (stereo partly drawn) [D1, (2S,3R,4R,5R)-2-(hydroxymethyl)-2-(((2R,3S,4R)-3,4,5-trihydroxy-5-(hydroxymethyl)tetrahydrofuran-2-yl)methoxy)tetrahydro-2H-pyran-3,4,5-triol] | higher acid resistance than that of D2 and sucrose |
| 100.0 | 81.2^B % | 51.9^B % | 34.4^B % |  | 100.0 | 98.1^A % | 95.8^B % | 92.9^B % | 100.0 | 100.0 | 99.9 | 99.58^A* % | OC[C@H]1O[C@@](CO)(O[C@H]2O[C@H](CO)[C@@H](O)[C@H](O)[C@H]2O)[C@@H](O)[C@@H]1O [Sucrose, reference compound] |  |
